# From patent US20250129370A1, “METHOD FOR REDUCING HEPATIC TRIGLYCERIDES” (ADAERATA, LIMITED PARTNERSHIP, priority 2022, published 2025)
# Key:
# [1] = tested on: PCSK7 mRNA; experiment: PCSK7 mRNA qPCR after miRNA overexpression in Huh7 cells; assay type: cell-based, human; settings: Huh7, 48 hours following transfection, vs mock vector
# Protocol: (§1) RNA was isolated from the cells with the TRIzol™ Reagent (Invitrogen, USA) according to the manufacturer's instructions. The RNA samples were treated with RNase-free DNase I (Fermentas, USA) to eliminate any possible DNA contamination. Reverse transcription was performed using the PrimeScript™ First Strand cDNA Synthesis Kit (Takara, Japan) following the manufacturer's protocol. Briefly, one unit of the DNase I enzyme, 1 μL of a buffer, and 1 μg of total RNA were incubated for 30 minutes at 37° C. Then, 1 μL of 50 mM EDTA was added for enzyme inactivation and incubated at 65° C. for 10 minutes. Subsequently, 5 μL of DNase-treated RNA was added to the mix of 0.5 μL of the reverse-transcriptase enzyme, 2 μL of the reverse-transcriptase buffer, and 1 μL of a random hexamer and incubated for 15 minutes at 37° C., followed by 5 seconds at 85° C. for enzyme inactivation. Stem-loop RT-qPCR method was applied for evaluating the expression of miRNAs (Kramer, 2011). […]
# (§2) All the reactions were repeated in duplicates. Next, melt curves were analyzed, with the mean threshold cycles used for further analyses. The relative expressions of the miRNAs and PCSK7 to RNU48 small nuclear RNA and/or GAPDH and β2m were calculated, respectively, via the 2-ΔΔCt method. […]
# [2] = tested on: PCSK7 mRNA; experiment: PCSK7 mRNA qPCR after miRNA overexpression in HEK293T cells; assay type: cell-based, human; settings: 48 hours after transfection
# Protocol: as §1, §2
# [3] = tested on: human PC7; experiment: Western blot of overexpressed PC7 protein in Huh7 cells co-transfected with miRNA vectors; assay type: cell-based
# Protocol: In the next step, the effect of miR-125a-5p on PC7 function was determined. First, the miR-125a-5p-overexpressing vector and its related mock plasmids were co-transfected with the pIRES vector (Invitrogen, USA), containing the full length of cDNA encoding the PCSK7 mRNA with the complete 3′-UTR in Huh7 cells. The western blot analysis was performed 48 hours after transfection. Thereafter, the impact of miR-125a-5p on the enzymatic function of PC7 was assessed by co-transfecting Huh7 cells with the miR-125a-5p-overexpressing vector, with that coding for the full length of PCSK7, and a plasmid encoding hTfR1 (Guillemot et al., 2013; Durand et al., 2020). […]
# Subsequently, proteins were isolated with an ice-cold RIPA buffer (1×), comprising 50 mM of Tris hydrochloride (pH 8), 150 mM of sodium chloride, 0.1% sodium dodecyl sulfate, 1% Nonidet P40, 0.25% sodium deoxycholate, and a cocktail of protease inhibitors (Roche, Oakville, ON, Canada). […] Both PC7 and TfR1 were C-terminally tagged with V5 and detected with a V5-monoclonal antibody (Invitrogen) and membranes were incubated with appropriate primary and secondary antibodies, as reported (Guillemot et al., 2013). Subsequently, immunoreactive bands (the signal) were visualized with an enhanced chemiluminescent reaction kit (Bio-Rad, USA) and recorded via chemiluminescence. […]
# [4] = tested on: human PCSK9; experiment: Western blot of PCSK9 protein in Huh7 cells co-transfected with miRNA vectors; assay type: cell-based; settings: Huh7, selectivity control
# Protocol: Western blot analysis was conducted to determine whether miR-125a-5p affected the functional activity of […] PC7 in Huh7 cells. A wild-type human PC7-overexpressing vector was co-transfected with pre-miR-125a-5p and pre-miR-224-5p-overexpressing plasmids in Huh7 cells. […] As control, a human PCSK9-overexpressing vector was co-transfected with miR-125a-5p and miR-224-5p vectors in Huh7 cells, whereby these miRNAs had no effect on the expression level of PCSK9 protein (not shown).
substance,measurement,setting,value
"miR-125a-5p: miRNA targeting PCSK7 3′-UTR and exons 14 and 15, overexpressed from pEGFP-C1 precursor vector (UCCCUGAGACCCUUUAACCUGUGA; miRNA expressed from a pEGFP-C1 precursor vector, further chemistry not given here)",effect on expression of PCSK7 mRNA,[1],did not reach statistical significance
same,reduction in PCSK7 mRNA levels,[2],~25%
same,fall of overexpressed PC7 protein levels,"[3]; Huh7, 48 hours post-transfection, vs mock (pEGFP-C1) and miR-224-5p controls",~80%
same,decrease of PC7 protein levels,"[3]; Huh7, PC7:miR-125a-5p DNA ratios 1:2, 1:3 and 1:5, all three ratios",> 80%
same,expression level of PCSK9 protein,[4],no effect
